Results reported in the Deep4Chem optical property database.
One block for each molecule: values may come before it.

Assay: solvent given as SMILES

- fluorescence lifetime (in C1CCCCC1): 30 ns
SMILES: C[SiH](C)c1ccc([SiH](C)C)c2ccccc12

SMILES: CN(C)c1ccc(N(C)C)cc1
- fluorescence lifetime (in C1CCCCC1): 6.1 ns

- fluorescence lifetime (in ClCCl): 7.59 ns
SMILES: CCCCC(CC)Cn1c2cc(C#N)ccc2c2cc(-c3ccc(N(c4ccccc4)c4ccccc4)cc3)c(C#N)cc21 (centres undefined)

- fluorescence lifetime (in ClC(Cl)Cl): 6.3 ns
SMILES: CC(C)(C)c1ccc(Oc2cc3c4c(cc(Oc5ccc(C(C)(C)C)cc5)c5c6c(Oc7ccc(C(C)(C)C)cc7)cc7c8c(cc(Oc9ccc(C(C)(C)C)cc9)c(c2c45)c86)C(=O)N(Cc2ccccc2)C7=O)C(=O)N(Cc2ccccc2)C3=O)cc1

- fluorescence lifetime (in ClC(Cl)Cl): 3.11 ns
SMILES: CN1CCc2cc(C3=Cc4cccc[n+]4[B-](F)(F)O3)ccc21

SMILES: CC1=CC(C)=[N+]2C1=C(c1ccc(-c3ccc(O)cc3)s1)c1c(C)cc(C)n1[B-]2(F)F
- fluorescence lifetime (in Cc1ccccc1): 3.5 ns

- fluorescence lifetime (in CC#N): 13.3 ns
- fluorescence lifetime (in CCCCCC): 9.1 ns
SMILES: c1ccc2c(c1)[nH]c1ncccc12

- fluorescence lifetime (in CC#N): 5.3 ns
SMILES: CC1=CC(/C=C/c2ccc([N+](C)(C)C)cc2)=[N+]2C1=C(c1ccc(C#CCO[C@@H]3O[C@H](CO)[C@@H](O)C(O)[C@H]3O)cc1)c1c(C)cc(/C=C/c3ccc([N+](C)(C)C)cc3)n1[B-]2(F)F (some centres undefined)

- fluorescence lifetime (in ClC(Cl)Cl): 0.7 ns
SMILES: C(#Cc1ccccc1)C(C#Cc1ccccc1)=Cc1ccc(-c2ccc(C=C(C#Cc3ccccc3)C#Cc3ccccc3)cc2)cc1

- fluorescence lifetime (in C1CCOC1): 7 ns
SMILES: c1ccc(/C(=C(\c2ccccc2)c2ccccc2-c2ccc(-c3ccccc3)cc2)c2ccccc2-c2ccc(-c3ccccc3)cc2)cc1

SMILES: Nc1ccc2c(c1)C(=O)N(C13C[C@H]4C[C@@H](C1)C[C@@H](C3)C4)C2=O
- fluorescence lifetime (in C1CCCCC1): 10.7 ns
- fluorescence lifetime (in C1CCOC1): 18.2 ns
- fluorescence lifetime (in CC#N): 19 ns
- fluorescence lifetime (in CCOC(C)=O): 17 ns
- fluorescence lifetime (in CO): 9.49 ns
- fluorescence lifetime (in CS(C)=O): 22.4 ns
- fluorescence lifetime (in Cc1ccccc1): 17.3 ns
- fluorescence lifetime (in ClCCl): 24.6 ns

- fluorescence lifetime (in CC#N): 1.24 ns
SMILES: Cc1cc(C)c2nc3c(=O)[nH]c(=O)[nH]c3nc2c1

- fluorescence lifetime (in CCCCCC): 1.14 ns
SMILES: COc1ccc(N2c3cc(OC)ccc3N=c3cc4c(cc32)=Nc2cc(C(C)(C)C)cc(C(C)(C)C)c2O4)cc1

- fluorescence lifetime (in CC#N): 2.5 ns
SMILES: c1ccc([C@]23CC[C@H](CC2)N=N3)cc1

SMILES: Cc1cc(C)cc(C)c1
- fluorescence lifetime (in C1CCCCC1): 73 ns

- fluorescence lifetime (in C1CCCCC1): 2.5 ns
SMILES: Cc1ccccc1-c1ccccc1C

- fluorescence lifetime (in ClCCl): 3 ns
SMILES: CCN(CC)c1ccc2cc(C#N)/c(=N\C(=O)c3ccccc3)oc2c1

SMILES: CCCCCCCCN1c2ccccc2Sc2cc(/C=C/c3ccc(N(c4ccc(/C=C/c5ccc6c(c5)Sc5ccccc5N6CCCCCCCC)cc4)c4ccc(/C=C/c5ccc(/C=C/c6ccc(N(c7ccc(/C=C/c8ccc9c(c8)Sc8ccccc8N9CCCCCCCC)cc7)c7ccc(/C=C/c8ccc9c(c8)Sc8ccccc8N9CCCCCCCC)cc7)cc6)c6nsnc56)cc4)cc3)ccc21
- fluorescence lifetime (in C1CCOC1): 1.45 ns
- fluorescence lifetime (in CCOC(C)=O): 1.83 ns
- fluorescence lifetime (in Cc1ccccc1): 3.53 ns
- fluorescence lifetime (in ClC(Cl)Cl): 2.25 ns
- fluorescence lifetime (in ClCCl): 2 ns

- fluorescence lifetime (in CCCCCCC): 112 ns
SMILES: COc1nc(Nc2cc3ccc4cccc5ccc(c2)c3c45)nc(OC)n1

SMILES: CC1=C(c2cccs2)C(C)=[N+]2C1=C(c1ccc(O)cc1)c1c(C)c(-c3cccs3)c(C)n1[B-]2(F)F
- fluorescence lifetime (in Cc1ccccc1): 3.8 ns

- fluorescence lifetime (in C1CCCCC1): 8.64 ns
SMILES: c1cc2c3c(c1)OCCCCCCOc1cccc(c1-c1c4ccccc4c-3c3ccccc13)OCCCCCCO2

- fluorescence lifetime (in C1CCOC1): 0.442 ns
- fluorescence lifetime (in C1COCCO1): 0.481 ns
- fluorescence lifetime (in CC#N): 0.978 ns
- fluorescence lifetime (in CCCCCCCCCCCCO): 1.36 ns
- fluorescence lifetime (in CCCCCCCCCCO): 1.28 ns
- fluorescence lifetime (in CCCCCCCCO): 1.25 ns
- fluorescence lifetime (in CCCCCCO): 1.22 ns
- fluorescence lifetime (in CCCCO): 1.12 ns
- fluorescence lifetime (in CCO): 1.36 ns
- fluorescence lifetime (in CCOC(C)=O): 0.476 ns
- fluorescence lifetime (in CN(C)C=O): 0.838 ns
- fluorescence lifetime (in CO): 1.78 ns
- fluorescence lifetime (in CS(C)=O): 1.43 ns
- fluorescence lifetime (in O): 2.29 ns
- fluorescence lifetime (in c1ccccc1): 0.466 ns
SMILES: O=C1CCCc2c1[nH]c1cc3c(cc21)OCO3

- fluorescence lifetime (in ClCCl): 0.5 ns
SMILES: CC1=C(c2ccc(N(C)C)cc2)C(C)=[N+]2C1=C(c1c(-c3ccccn3)nc3ccccn13)c1c(C)cc(C)n1[B-]2(F)F

- fluorescence lifetime (in ClCCl): 2.29 ns
SMILES: CCCCn1c2c(-c3ccc(N(c4ccccc4)c4ccccc4)cc3)cc(C#N)cc2c2cc(C#N)cc(-c3ccc(N(c4ccccc4)c4ccccc4)cc3)c21

- fluorescence lifetime (in CS(C)=O): 10.6 ns
- fluorescence lifetime (in O): 16.7 ns
SMILES: Cn1c2ccc(S(=O)(=O)O)cc2c(=O)c2cc(S(=O)(=O)O)ccc21

SMILES: CCCCCCOc1ccc(C#Cc2ccc(C#CC#Cc3ccc(C#Cc4ccc(OCCCCCC)c(OCCCCCC)c4)c4nsnc34)c3nsnc23)cc1OCCCCCC
- fluorescence lifetime (in CN(C)C=O): 0.5 ns
- fluorescence lifetime (in COc1ccccc1): 2.2 ns
- fluorescence lifetime (in Cc1ccccc1): 1.9 ns
- fluorescence lifetime (in ClC(Cl)Cl): 2.6 ns
- fluorescence lifetime (in ClCCCl): 2 ns
- fluorescence lifetime (in ClCCl): 2.5 ns

- fluorescence lifetime (in CO): 622 ns
SMILES: O=C(O)CCCc1cc2ccc3cccc4ccc(c1)c2c34

- fluorescence lifetime (in C1CCCCC1): 26 ns
- fluorescence lifetime (in CC#N): 31.2 ns
- fluorescence lifetime (in CO): 28.6 ns
- fluorescence lifetime (in ClCCl): 25.8 ns
SMILES: COc1c2ccccc2c(OC)c2c1c1ccc(C(F)(F)F)cc1n2C

SMILES: CC(C)(C)c1ccc2c(c1)c1cc(C(C)(C)C)ccc1n2-c1ccc(C#Cc2cccc(C#Cc3ccc(-n4c5ccc(C(C)(C)C)cc5c5cc(C(C)(C)C)ccc54)cc3)c2)cc1
- fluorescence lifetime (in CC#N): 5.51 ns
- fluorescence lifetime (in CCCCC): 1.38 ns
- fluorescence lifetime (in CO): 4.88 ns
- fluorescence lifetime (in Cc1ccccc1): 1.65 ns
- fluorescence lifetime (in ClC(Cl)Cl): 2.51 ns
- fluorescence lifetime (in ClCCl): 3.62 ns
